Measured values taken from patent publication EP0942911B1, “BENZOPYRANOPYRROLE AND BENZOPYRANOPYRIDINE ALPHA-1 ADRENERGIC COMPOUNDS” (Abbott Laboratories, priority 1996, dated 1998).
Where a name gives a salt, the structure may show the parent alone.

How the values were obtained:
[1] = system: α-1A adrenoreceptor; experiment: Functional antagonism: inhibition of PE-induced contraction of canine prostate strips (Schild plot); assay type: cell-based; details: phenylephrine-induced contraction
Description: Canine prostate strips were used in vitro as previously described (Hieble, J.P., Boyce, A.J. and Caine, M., Fed. Proc., 45: 2609-2614 (1986)), to determine antagonist potencies against phenylephrine-induced contractions.
Functional assays indicative of pharmacologically defined α-1 adrenoreceptors were used to further characterize compounds. Inhibition of phenylephrine (PE)-induced contraction of canine prostate smooth muscle can be correlated with α-1A adrenoreceptor activation. […] For each of these models, agonist dose response curves were repeated against increasing concentrations of test agent to derive a Schild plot [log ([…]) against log (molarity of test agent)] to determine the pA2.

[2] = biological target: T1, α-1B adrenoreceptor (Rattus norvegicus, UniProt P15823); experiment: cell-based; details: phenylephrine-induced contraction; Schild plot; read-out: In Vitro Characterization (pA2) Rat Spleen (converted)
T1 construct: from tissue; host or cells: rat spleen
T1 sequence (P15823 1-515): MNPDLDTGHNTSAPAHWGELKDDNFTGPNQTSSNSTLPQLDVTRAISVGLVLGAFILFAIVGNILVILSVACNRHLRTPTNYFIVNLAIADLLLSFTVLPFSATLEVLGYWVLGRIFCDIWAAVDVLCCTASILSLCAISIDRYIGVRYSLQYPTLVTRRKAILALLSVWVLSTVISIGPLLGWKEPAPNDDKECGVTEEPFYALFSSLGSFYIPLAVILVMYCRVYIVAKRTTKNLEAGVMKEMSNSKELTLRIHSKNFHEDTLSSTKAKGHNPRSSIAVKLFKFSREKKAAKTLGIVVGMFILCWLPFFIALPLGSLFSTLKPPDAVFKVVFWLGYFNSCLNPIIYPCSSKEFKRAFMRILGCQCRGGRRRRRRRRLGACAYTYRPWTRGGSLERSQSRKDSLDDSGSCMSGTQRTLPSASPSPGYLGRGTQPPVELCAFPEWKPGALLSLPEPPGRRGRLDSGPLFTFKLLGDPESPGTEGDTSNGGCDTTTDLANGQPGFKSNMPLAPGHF
Outline: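 Phenylephrine dose-response curves for contraction were repeated against increasing test-agent concentrations. pA2 was derived by Schild plot [[…] vs log molarity of test agent].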

| Compound | In Vitro Characterization (pA2) Dog Prostate [1] | Kb [2] |
| --- | --- | --- |
| COc1cccc2c1[C@@H]1CN(CCn3c(=O)[nH]c4c(sc5ccccc54)c3=O)C[C@@H]1CO2.Cl (racemic) [Example 65, 3-[2-((±)-cis-9-Methoxy-1,2,3,3a,4,9b-hexahydro-[1]-benzopyrano[3,4-c]pyrrol-2-yl)ethyl]-[1]benzthieno[3,2-d]pyrimidine-2,4(1H,3H)-dione hydrochloride] | 7.76 |  |
| COc1cccc2c1[C@@H]1CCN(CCCCn3c(=O)[nH]c4c(sc5ncccc54)c3=O)C[C@H]1CO2 (racemic) [Example 85, 3-[4-((±)-trans-10-Methoxy-1,3,4,4a,5,10b-hexahydro-2H-[1]-benzopyrano[3,4-c]pyrido-3-yl)butyl]-pyrido[3',2':4,5]thieno[3,2-d]pyrimidine-2,4(1H,3H)-dione dihydrochloride] | 8.6 |  |
| COc1cccc2c1[C@@H]1CN(CCCCn3c(=O)[nH]c4c(sc5ncc(-c6ccccc6)nc54)c3=O)C[C@@H]1CO2 [Example 39, 3-[4-((3aR,9bR)-cis-9-Methoxy-1,2,3,3a,4,9b-hexahydro-[1]-benzopyrano[3,4-c]pyrrol-2-yl)butyl]-8-phenyl-pyrazino[2',3':4,5]thieno[3,2-d]pyrimidine-2,4(1H,3H)-dione hydrochloride] | 8.52 | 148 nM |
| COc1cccc2c1[C@H]1CN(CCCCn3c(=O)[nH]c4c(sc5cccnc54)c3=O)C[C@H]1CO2 [Example 2, 3-[4-((3aS,9bS)-cis-9-Methoxy-1,2,3,3a,4,9b-hexahydro-[1]-benzopyrano[3,4-c]pyrrol-2-yl)butyl]-pyrido[2',3':4,5]thieno[3,2-d]pyrimidine-2,4(1H,3H)-dione hydrochloride] | 7.95 |  |
| COc1cccc2c1[C@@H]1CN(CCCCn3c(=O)[nH]c4c(sc5cccnc54)c3=O)C[C@H]1CO2 [Example 3, 3-[4-((3aS,9bR)-trans-9-Methoxy-1,2,3,3a,4,9b-hexahydro-[1]-benzopyrano[3,4-c]pyrrol-2-yl)butyl]-pyrido[2',3':4,5]thieno[3,2-d]pyrimidine-2,4(1H,3H)-dione hydrochloride] | 9.43 |  |
| COc1cccc2c1[C@@H]1CN(CCCn3c(=O)[nH]c4c(sc5ccccc54)c3=O)C[C@@H]1CO2.Cl (racemic) [Example 66, 3-[3-((±)-cis-9-Methoxy-1,2,3,3a,4,9b-hexahydro-[1]-benzopyrano[3,4-c]pyrrol-2-yl)propyl]-[1]benzthieno[3,2-d]pyrimidine-2,4(1H,3H)-dione hydrochloride] | 7.48 |  |
| COc1cccc2c1[C@@H]1CN(CCCCn3c(=O)[nH]c4c(sc5nc(-c6ccccc6)cnc54)c3=O)C[C@@H]1CO2 [Example 40, 3-[4-((3aR,9bR)-cis-9-Methoxy-1,2,3,3a,4,9b-hexahydro-[1]-benzopyrano[3,4-c]pyrrol-2-yl)butyl]-7-phenyl-pyrazino[2',3':4,5]thieno[3,2-d]pyrimidine-2,4(1H,3H)-dione hydrochloride] |  | 759 nM |
| Cl.O=c1[nH]c2c(sc3ccccc32)c(=O)n1CCN1C[C@@H]2COc3ccccc3[C@@H]2C1 (racemic) [Example 69, 3-[2-((±)-cis-1,2,3,3a,4,9b-hexahydro-[1]-benzopyrano[3,4-c]pyrrol-2-yl)ethyl]-[1]benzthieno[3,2-d]pyrimidine-2,4(1H,3H)-dione hydrochloride] | 6.91 |  |
| COc1cccc2c1[C@@H]1CN(CCCCn3c(=O)[nH]c4c(sc5cccnc54)c3=O)C[C@@H]1CO2 [Example 1, 3-[4-((3aR,9bR)-cis-9-Methoxy-1,2,3,3a,4,9b-hexahydro-[1]-benzopyrano[3,4-c]pyrrol-2-yl)butyl]-pyrido[2',3':4,5]thieno[3,2-d]pyrimidine-2,4(1H,3H)-dione hydrochloride] | 8.69 |  |
| COc1cccc2c1[C@@H]1CN(CCCCn3c(=O)[nH]c4c(sc5c(OC)ccnc54)c3=O)C[C@@H]1CO2 [Example 18, 3-[4-((3aR,9bR)-cis-9-Methoxy-1,2,3,3a,4,9b-hexahydro[1]-benzopyrano[3,4-c]pyrrol-2-yl)butyl]-6-methoxy-pyrido[2',3':4,5]thieno[3,2-d]pyrimidine-2,4(1H,3H)-dione dihydrochloride] |  | 19.5 nM |
| COc1ccc2c(c1)OC[C@H]1CN(CCn3c(=O)[nH]c4c(sc5ccccc54)c3=O)C[C@@H]21.Cl (racemic) [Example 63, 3-[2-((±)-cis-7-Methoxy-1,2,3,3a,4,9b-hexahydro-[1]-benzopyrano[3,4-c]pyrrol-2-yl)ethyl]-[1]benzthieno[3,2-d]pyrimidine-2,4(1H,3H)-dione hydrochloride] | 6.65 |  |
| COc1cnc2sc3c(=O)n(CCCCN4C[C@@H]5COc6cccc(OC)c6[C@@H]5C4)c(=O)[nH]c3c2n1 [Example 31, 3-[4-((3aR,9bR)-cis-9-Methoxy-1,2,3,3a,4,9b-hexahydro-[1]-benzopyrano[3,4-c]pyrrol-2-yl)butyl]-8-methoxy-pyrazino[2',3':4,5]thieno[3,2-d]pyrimidine-2,4(1H,3H)-dione hydrochloride] |  | 14.1 nM |
| COc1cccc2c1[C@@H]1CN(CCCCn3c(=O)[nH]c4c(sc5ncccc54)c3=O)C[C@H]1CO2 [Example 44, 3-[4-((3aS,9bR)-trans-9-Methoxy-1,2,3,3a,4,9b-hexahydro-[1]-benzopyrano[3,4-c]pyrrol-2-yl)butyl]-pyrido[3',2':4,5]thieno[3,2-d]pyrimidine-2,4(1H,3H)-dione hydrochloride] |  | 4.47 nM |
| COc1ccc2c(n1)sc1c(=O)n(CCCCN3C[C@H]4COc5cccc(OC)c5[C@@H]4C3)c(=O)[nH]c12 [Example 46, 3-[4-((3aS,9bR)-trans-9-Methoxy-1,2,3,3a,4,9b-hexahydro-[1]-benzopyrano[3,4-c]pyrrol-2-yl)butyl]-7-methoxy-pyrido[3',2':4,5]thieno[3,2-d]pyrimidine-2,4(1H,3H)-dione hydrochloride] |  | 7.59 nM |
| COc1cccc2c1OC[C@H]1CN(CCCn3c(=O)[nH]c4c(sc5ccccc54)c3=O)C[C@@H]21.Cl (racemic) [Example 68, 3-[3-((±)-cis-6-Methoxy-1,2,3,3a,4,9b-hexahydro-[1]-benzopyrano[3,4-c]pyrrol-2-yl)propyl]-[1]benzthieno[3,2-d]pyrimidine-2,4(1H,3H)-dione hydrochloride] | 7.02 |  |
| COc1cccc2c1[C@@H]1CN(CCCCn3c(=O)[nH]c4c(sc5c(OC)ccnc54)c3=O)C[C@H]1CO2 [Example 17, 3-[4-((3aS,9bR)-trans-9-Methoxy-1,2,3,3a,4,9b-hexahydro-[1]-benzopyrano[3,4-c]pyrrol-2-yl)butyl]-6-methoxy-pyrido[2',3':4,5]thieno[3,2-d]pyrimidine-2,4(1H,3H)-dione dihydrochloride] |  | 11 nM |
| COc1cccc2c1[C@@H]1CN(CCCCn3c(=O)[nH]c4c(sc5cnccc54)c3=O)C[C@@H]1CO2 [Example 29, 3-[4-((3aR,9bR)-cis-9-Methoxy-1,2,3,3a,4,9b-hexahydro-[1]-benzopyrano[3,4-c]pyrrol-2-yl)butyl]-pyrido[4',3':4,5]thieno[3,2-d]pyrimidine-2,4(1H,3H)-dione dihydrochloride] |  | 12.3 nM |
| COc1cccc2c1[C@@H]1CN(CCCCn3c(=O)[nH]c4c(sc5cc(Cl)cnc54)c3=O)C[C@@H]1CO2 [Example 38, 3-[4-((3aR,9bR)-cis-9-Methoxy-1,2,3,3a,4,9b-hexahydro-[1]-benzopyrano[3,4-c]pyrrol-2-yl)butyl]-7-chloro-pyrido[2',3':4,5]thieno[3,2-d]pyrimidine-2,4(1H,3H)-dione hydrochloride] |  | 19.5 nM |
| O=c1[nH]c2c(sc3cccnc32)c(=O)n1CCCCN1C[C@@H]2COc3ccccc3[C@@H]2C1 (racemic) [Example 70, 3-[4-((±)-cis-1,2,3,3a,4,9b-hexahydro-[1]-benzopyrano[3,4-c]pyrrol-2-yl)butyl]-pyrido[2',3':4,5]thieno[3,2-d]pyrimidine-2,4(1H,3H)-dione dihydrochloride] |  | 87.1 nM |
| COc1ccc2c(c1)OC[C@H]1CN(CCCn3c(=O)[nH]c4c(sc5ccccc54)c3=O)C[C@@H]21.Cl (racemic) [Example 64, 3-[3-((±)-cis-7-Methoxy-1,2,3,3a,4,9b-hexahydro-[1]-benzopyrano[3,4-c]pyrrol-2-yl)propyl]-[1]benzthieno[3,2-d]pyrimidine-2,4(1H,3H)-dione hydrochloride] | 6.92 |  |
| COc1cccc2c1[C@@H]1CN(CCCCn3c(=O)[nH]c4c(sc5nc(C)ccc54)c3=O)C[C@H]1CO2 [Example 45, 3-[4-((3aS,9bR)-trans-9-Methoxy-1,2,3,3a,4,9b-hexahydro-[1]-benzopyrano[3,4-c]pyrrol-2-yl)butyl]-7-methyl-pyrido[3',2':4,5]thieno[3,2-d]pyrimidine-2,4(1H,3H)-dione hydrochloride] |  | 1.29 nM |
